Measured values as given in patent US5061729A, “Pharmaceutical composition and process for preparing the same” (priority 1988, dated 1991).
Like-named read-outs stand apart in the source and are kept apart here.

Tests used:
[1] = mucolytic (viscosity-reducing) effect of sulfhydryl compounds; conditions: comparison of compounds containing a sulfhydryl group
[2] = tested on: pathogenic micro-organisms occurring in the discharges of patients suffering from chronic otitis; assay: treatment of the ear discharges by antibacterial agents (sensitivity, Table 2); type: cell-based; conditions: for A = therapeutically active (sensitive) / M = moderately active / R = inactive (resistant): number of cases of 510 examinations; for Act. = activity %: share of active cases, 510 examinations
Method: In the Department for Otorhinolaryngology of the Medical University of Debrecen, adult and child patients were examined to identify the types of pathogenic micro-organisms occurring in the discharges of patients suffering from chronic otitis (otitis media chronica); the discharges of 510 patients were analyzed for the bacterial infection.
Symbols used in Table 2:
0 = number of the cases not examined
A = therapeutically active (sensitive)

[3] = cited from earlier work
[4] = single-component treatment: aqueous solutions of sulfhydryl compounds; type: in vivo, patients; conditions: acetylcysteine solution
[5] = dogs; oral administration; cited from earlier work
[6] = rats; oral administration; cited from earlier work
[7] = mice; oral administration; cited from earlier work
[8] = tested on: several gram-positive and gram-negative bacteria such as Pseudomonas aeruginosa; conditions: in vitro conditions; M. F. Parry et al.; cited from earlier work
[9] = single-component treatment: 1% tobramycin solution in chronic mesotympanic otitis; type: in vivo, patients; conditions: 1% solution
From the text: (§1) Several compositions according to the invention were also studied with omitting one active ingredient of the composition in order to support the progressive character of the multi-active-component type composition according to the invention. These experiments led to the following results.

[10] = single-component treatment: 1% tobramycin solution in external otitis; type: in vivo, patients; conditions: 1% solution
From the text: as §1

[11] = with sulfhydryl-containing compounds, particularly acetylcysteine

Compound	A = therapeutically active (sensitive) [2]	M = moderately active [2]	R = inactive (resistant) [2]	Act. = activity % [2] [%]	further results
N[C@@H](CSCC(=O)O)C(=O)O [carbocysteine]	–	–	–	–	mucolytic effect [1]: mucolytic effect can also be shown
Cc1onc(-c2ccccc2)c1C(=O)N[C@@H]1C(=O)N2[C@@H]1SC(C)(C)[C@@H]2C(=O)O [Oxacillin]	191	13	77	72.6	–
COc1cccc(OC)c1C(=O)N[C@@H]1C(=O)N2[C@@H]1SC(C)(C)[C@@H]2C(=O)O [Meticillin]	146	27	95	64.6	–
CC(C)(CO)[C@@H](O)C(=O)NCCC(=O)NCCS [pantetheine]	–	–	–	–	mucolytic effect [1]: mucolytic effect can also be shown
C[C@H]1c2cccc(O)c2C(O)=C2C(=O)[C@]3(O)C(O)=C(C(N)=O)C(=O)[C@@H](N(C)C)[C@@H]3[C@@H](O)[C@@H]21 [doxycyclin]	–	–	–	–	influence of sulfhydryl-containing compounds on absorption from the stomach [3, 11]: not disadvantageously influenced by the sulfhydryl-containing compounds
CC1(C)S[C@@H]2[C@H](NC(=O)Cc3ccccc3)C(=O)N2[C@H]1C(=O)O [Penicillin]	67	22	218	29.4	–
[H]/N=C(/N)N[C@H]1[C@H](O)[C@@H](O)[C@H](O[C@@H]2O[C@@H](C)[C@](O)(C=O)[C@H]2O[C@@H]2O[C@@H](CO)[C@H](O)[C@@H](O)[C@@H]2NC)[C@@H](N/C(N)=N\[H])[C@@H]1O [Streptomycin]	39	42	87	48.2	–
CC(=O)N[C@@H](CS)C(=O)O [N-acetyl-L-cysteine]	–	–	–	–	mucolytic effect [1]: most useful mucolytic agent; character of the discharge under treatment [4]: rather took the form of a precipitate; LD50 [5]: 1000 mg/kg of body-weight; LD50 [6]: 6000 mg/kg of body-weight; LD50 [7]: 3000 mg/kg of body-weight; synergistic effect with several antibiotics [8]: shows a synergistic effect with several antibiotics
CO[C@H]1C[C@H](O[C@H]2[C@H](C)[C@@H](O[C@@H]3O[C@H](C)C[C@H](N(C)C)[C@H]3O)[C@@H](C)C[C@@]3(CO3)C(=O)[C@H](C)[C@@H](O)[C@@H](C)[C@@H](C)OC(=O)[C@@H]2C)O[C@@H](C)[C@@H]1O [Oleandomycin]	114	4	179	39.7	–
NC[C@H]1O[C@H](O[C@H]2[C@H](O)[C@@H](O[C@H]3O[C@H](CO)[C@@H](O)[C@H](N)[C@H]3O)[C@H](N)C[C@@H]2N)[C@H](N)C[C@@H]1O [Tobramycin, tobramycin]	116	86	61	79.2	substantial improvement of the pathological processes, % of patients [9]: about 60%; substantial improvement, % of patients [10]: ≤ 40%; influence of sulfhydryl-containing compounds on absorption from the stomach ([3]; in vivo): not disadvantageously influenced by the sulfhydryl-containing compounds
Gentamycin	65	72	118	53.7	–
CC1(C)S[C@@H]2[C@H](NC(=O)C(C(=O)O)c3ccccc3)C(=O)N2[C@H]1C(=O)O (stereo partly shown) [Carbenicillin]	137	22	91	63.6	–
CN(C)[C@@H]1C(=O)C(C(N)=O)=C(O)[C@@]2(O)C(=O)C3=C(O)c4c(O)cccc4[C@@](C)(O)[C@H]3C[C@@H]12 [Tetracyclin]	79	16	279	25.4	–
CC1(C)S[C@@H]2[C@H](NC(=O)[C@H](N)c3ccc(O)cc3)C(=O)N2[C@H]1C(=O)O [amoxicillin]	–	–	–	–	influence of sulfhydryl-containing compounds on absorption from the stomach [3, 11]: not disadvantageously influenced by the sulfhydryl-containing compounds
CCN(CC)C(=S)SSC(=S)N(CC)CC [disulfiram]	–	–	–	–	mucolytic effect [1]: mucolytic effect can also be shown
O[C@H](CS)[C@@H](O)CS [dithioerythritol]	–	–	–	–	mucolytic effect [1]: mucolytic effect can also be shown
O=C(O)C(S)C(S)C(=O)O (stereo not shown) [dimercaptosuccinate]	–	–	–	–	mucolytic effect [1]: mucolytic effect can also be shown
CC[C@H]1OC(=O)[C@H](C)[C@@H](O[C@H]2C[C@@](C)(OC)[C@@H](O)[C@H](C)O2)[C@H](C)[C@@H](O[C@@H]2O[C@H](C)C[C@H](N(C)C)[C@H]2O)[C@](C)(O)C[C@@H](C)C(=O)[C@H](C)[C@@H](O)[C@]1(C)O [Erythromycin]	113	6	208	36.4	influence of sulfhydryl-containing compounds on absorption from the stomach ([3]; in vivo): not disadvantageously influenced by the sulfhydryl-containing compounds
CC1(C)S[C@@H]2[C@H](NC(=O)[C@H](N)c3ccccc3)C(=O)N2[C@H]1C(=O)O [Ampicillin]	72	11	120	40.8	–
Polymyxin B	69	8	103	42.7	–
N[C@@H](CCC(=O)N[C@@H](CS)C(=O)NCC(=O)O)C(=O)O [glutathione]	–	–	–	–	mucolytic effect [1]: mucolytic effect can also be shown
O=C(N[C@H](CO)[C@H](O)c1ccc([N+](=O)[O-])cc1)C(Cl)Cl [Chloramphenicol]	106	11	197	37.2	–
neomycin	27	13	5	88.9	influence of sulfhydryl-containing compounds on absorption from the stomach ([3]; in vivo): not disadvantageously influenced by the sulfhydryl-containing compounds
O=C(Cc1cccs1)N[C@@H]1C(=O)N2C(C(=O)[O-])=C(C[n+]3ccccc3)CS[C@H]12 [Cephaloridin]	170	27	182	51.9	–
